In this test the test system is B16BL6 cells. Description: Cancer metastasis: B16BL6 melanoma colonies in lung. It is filed as in vivo, C57BL/6 male mouse. Here is the method: B16BL6 cells (5×10^4) were injected into C57BL/6 male mouse of 6 to 7 weeks old through the tail vein. After that, 0.2 ml of water or drug combinations was daily given to mice by oral administration for 3 weeks. Three weeks after injection, the mice were sacrificed and the number of tumor colonies on the surface of lungs was counted under microscope. The average number of melanoma colonies in lungs from mice of treated group was less than that from control mice.

On to `Clc1ccccc1CN1CCc2sccc2C1` [Ticlopidine, ticlopidine], for which the “Inhibition (%) of metastasis” value (oral daily for 3 weeks) is 38%. The Colonies in lung (oral daily for 3 weeks after tail vein injection of B16BL6 cells) was 83 ± 20.
